Laboratory results taken from publication PMC11790914, “Chemogenomics for steroid hormone receptors (NR3)” (Communications Chemistry, 2025).
“And” between values parts separate entries of the source, which are not always exact repeats. Equal values may be shown once.

Tests used:
[1] = system: NF-κB activity in HEK293 NF-κB reporter cells; assay: NF-kB activity assay (GFP reporter, ionomycin/PMA); assay type: cell-based; details: n=3
Procedure, shortened: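 HEK293 NF-κB GFP reporter cells given compound in 0.1% DMSO for 4 h, then stimulated with ionomycin 100 ng/mL plus PMA 10 ng/mL. Imaged every 90 min over 24 h; GFP-positive cell count normalized to confluence, three independent biological replicates.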

HEK293T cells [2] = assay: Cytotoxicity: metabolic activity (WST-8 / CCK-8 assay); details: single replicates
HEK293T cells [3] = assay: Cytotoxicity: growth-rate (change in confluence over 24 h); details: normalized to 0.1% DMSO control, single replicates (n=1...)
Experimental: Cells were incubated with the test compounds at the indicated concentrations solubilized with 0.1% DMSO for 24 h. Growth-rate was determined based on the change in confluence over 24 h normalized to the change in confluence of cells treated with the 0.1% DMSO control (n = 10). Metabolic activity was determined with a water-soluble tetrazolium-8 (WST-8) assay (n = 8) after 24 h treatment. Apoptotic cells were detected with a fluorogenic DNA dye coupled to the caspase-3/7 recognition sequence (DEVD) after 24 h treatment and the apoptotic cell count was normalized to 0.1% DMSO treated cells (n = 6).
HEK293T cells (German Collection of Microorganisms and Cell Culture GmbH, DSMZ; #ACC305) were cultured in DMEM high glucose, supplemented with 10% fetal calf serum (FCS), sodium pyruvate (1 mM), penicillin (100 µ/mL) and streptomycin (100 µg/mL) at 37 °C and 5% (v/v) CO2, and seeded in pre-coated (10 µg/mL collagen G solution (Merck KgaA; #L7213) for 30 min at 37 °C) 96-well plates (2 × 10^5 cells per well). After 24 h, the cells were treated with the respective NR3 CG compound candidate at the recommended concentration, bexarotene (100 µM) or doxorubicin (30 µM) as positive controls in DMEM high glucose supplemented with 0.1% FCS, penicillin (100 µ/mL), streptomycin (100 µg/mL) and 0.1% DMSO, or 0.1% DMSO alone as an untreated control. Each sample was prepared in at least four biologically independent replicates. […] Thereafter, the medium was aspirated and the cells were incubated for 3 h with 90 µL DMEM high glucose supplemented with 0.2% FCS, penicillin (100 µ/mL) and streptomycin (100 µg/mL) and additionally containing 10 µL Cell Counting Kit 8 solution (CCK-8; MedChemExpress, Monmouth Junction, New York, USA; #HY-K0301), and absorbance was measured at 1 h, 2 h and 3 h of incubation at 450 nm on a Tecan Spark Cyto to assess metabolic activity of the cells. Before drug administration, after the first medium exchange, 24 h after drug administration, and after fluorescence imaging cell confluence was assessed using the Tecan Spark Cyto, to account for changes in cell confluence due to drug administration and cell handling. Compound effects on cell confluence, apoptosis, metabolic activity and necrosis were normalized to the vehicle control of each biological replicate individually.

ABL1 = biological target: T1, ABL1 (Homo sapiens, UniProt P00519); assay: Liability panel screening by DSF: ABL1; assay type: binding; details: DSF, 20 µM, n=2; for ΔTm at 20 µM: read-out: Mean ΔTM ABL1
T1 construct: made in house
Procedure, shortened: (§1)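 Recombinant protein at 2 µM in 10 mM HEPES pH 7.5 with 500 mM NaCl was mixed with SYPRO Orange (1:1000) and heated at 3 °C/min up to 85 °C. Tm was taken as the Boltzmann-fit inflection point. Shifts are ∆Tm in K from technical duplicates.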

MAPK1 = biological target: T2, MAPK1 (Homo sapiens, UniProt P28482); assay: Liability panel screening by DSF: MAPK1; assay type: binding; details: DSF, 20 µM, n=2; for ΔTm at 20 µM: read-out: Mean ΔTM MAPK1
T2 construct: made in house
Procedure, shortened: as §1

[4] = system: ATF6 activity in Hela ATF6 reporter cells; assay: Endoplasmic reticulum stress assay (ATF6 Renilla luciferase reporter, tunicamycin); assay type: cell-based; details: Homo sapiens, HeLa, 3 µM, single replicates n=1 to n=5; read-out: ER stress [rel. ATF6 activity]
Procedure, shortened: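 HeLa ATF6 Renilla reporter cells were pretreated 4 h with compounds in 0.1% DMSO, then stimulated with tunicamycin (100 ng/mL) for 18 h. Renilla luminescence (DualGlo) was normalized to 0.1% DMSO control; five independent experiments.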

GSK3B = biological target: T3, GSK3B (Homo sapiens, UniProt P49841); assay: Liability panel screening by DSF: GSK3B; assay type: binding; details: DSF, 20 µM, n=2; for ΔTm at 20 µM: read-out: Mean ΔTM GSK3B
T3 construct: made in house

CDK2 = biological target: T4, CDK2 (Homo sapiens, UniProt P24941); assay: Liability panel screening by DSF: CDK2; assay type: binding; details: DSF, 20 µM, n=2; for ΔTm at 20 µM: read-out: Mean ΔTM CDK2
T4 construct: made in house
Procedure, shortened: as §1

HEK293T cells [5] = assay: Cytotoxicity: apoptosis induction (caspase-3/7 DEVD fluorogenic DNA dye); details: for Apoptosis induction [AI]: single replicates
FGFR3 = biological target: T5, FGFR3 (Homo sapiens, UniProt P22607); assay: Liability panel screening by DSF: FGFR3; assay type: binding; details: DSF, 20 µM, n=2; for ΔTm at 20 µM: read-out: Mean ΔTM FGFR3
T5 construct: made in house
Procedure, shortened: as §1

BRD4 = biological target: T6, BRD4 (Homo sapiens, UniProt O60885); assay: Liability panel screening by DSF: BRD4; assay type: binding; details: DSF, 20 µM, n=2; for ΔTm at 20 µM: read-out: Mean ΔTM BRD4
T6 construct: This panel comprised ten highly ligandable kinases and bromodomains; made in house
Procedure, shortened: as §1

TRIM24 = biological target: T7, TRIM24 (Homo sapiens, UniProt O15164); assay: Liability panel screening by DSF: TRIM24; assay type: binding; details: DSF, 20 µM, n=2; for ΔTm at 20 µM: read-out: Mean ΔTM TRIM24
T7 construct: This panel comprised ten highly ligandable kinases and bromodomains; made in house
T7 sequence (O15164 899-1004 limits assumed): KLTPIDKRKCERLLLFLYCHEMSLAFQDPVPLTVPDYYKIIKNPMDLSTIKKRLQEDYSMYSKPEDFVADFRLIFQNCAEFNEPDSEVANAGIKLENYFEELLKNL
Procedure, shortened: as §1

HEK293T cells [6] = assay: Cytotoxicity: necrosis induction (red fluorescent dye for permeable plasma membranes); assay type: cell-based; details: 3 µM, 24 h, necrotic cell count normalized to 0.1% DMSO, single replicates;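 further: compounds applied in DMEM high glucose with 0.1% FCS and 0.1% DMSO, necrotic HEK293T cells counted by red staining of cells whose plasma membranes had become permeable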
BRPF1 = biological target: T8, BRPF1 (Homo sapiens, UniProt P55201); assay: Liability panel screening by DSF: BRPF1; assay type: binding; details: DSF, 20 µM, n=2; for ΔTm at 20 µM: read-out: Mean ΔTM BRPF1
T8 construct: This panel comprised ten highly ligandable kinases and bromodomains; made in house
T8 sequence (P55201 628-732 limits assumed): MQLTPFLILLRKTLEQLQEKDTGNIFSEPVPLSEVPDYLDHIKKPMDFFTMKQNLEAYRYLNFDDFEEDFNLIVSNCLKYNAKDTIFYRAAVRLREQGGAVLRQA
Procedure, shortened: as §1

CSNK1D = biological target: T9, CSNK1D (Homo sapiens, UniProt P48730); assay: Liability panel screening by DSF: CSNK1D; assay type: binding; details: DSF, 20 µM, n=2; for ΔTm at 20 µM: read-out: Mean ΔTM CSNK1D
T9 construct: made in house
Procedure, shortened: as §1

T2 sequence (P28482 whole entry, species assumed): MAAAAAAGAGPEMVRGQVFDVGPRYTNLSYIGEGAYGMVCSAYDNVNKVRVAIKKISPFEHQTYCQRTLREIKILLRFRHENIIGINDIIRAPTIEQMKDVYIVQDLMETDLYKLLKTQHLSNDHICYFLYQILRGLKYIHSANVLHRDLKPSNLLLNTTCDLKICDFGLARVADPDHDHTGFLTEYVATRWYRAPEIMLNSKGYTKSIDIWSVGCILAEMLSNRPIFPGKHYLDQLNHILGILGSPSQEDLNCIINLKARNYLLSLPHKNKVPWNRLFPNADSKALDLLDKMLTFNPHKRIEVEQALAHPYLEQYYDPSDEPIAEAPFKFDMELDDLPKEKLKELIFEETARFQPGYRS
T1 sequence (P00519 whole entry, species assumed): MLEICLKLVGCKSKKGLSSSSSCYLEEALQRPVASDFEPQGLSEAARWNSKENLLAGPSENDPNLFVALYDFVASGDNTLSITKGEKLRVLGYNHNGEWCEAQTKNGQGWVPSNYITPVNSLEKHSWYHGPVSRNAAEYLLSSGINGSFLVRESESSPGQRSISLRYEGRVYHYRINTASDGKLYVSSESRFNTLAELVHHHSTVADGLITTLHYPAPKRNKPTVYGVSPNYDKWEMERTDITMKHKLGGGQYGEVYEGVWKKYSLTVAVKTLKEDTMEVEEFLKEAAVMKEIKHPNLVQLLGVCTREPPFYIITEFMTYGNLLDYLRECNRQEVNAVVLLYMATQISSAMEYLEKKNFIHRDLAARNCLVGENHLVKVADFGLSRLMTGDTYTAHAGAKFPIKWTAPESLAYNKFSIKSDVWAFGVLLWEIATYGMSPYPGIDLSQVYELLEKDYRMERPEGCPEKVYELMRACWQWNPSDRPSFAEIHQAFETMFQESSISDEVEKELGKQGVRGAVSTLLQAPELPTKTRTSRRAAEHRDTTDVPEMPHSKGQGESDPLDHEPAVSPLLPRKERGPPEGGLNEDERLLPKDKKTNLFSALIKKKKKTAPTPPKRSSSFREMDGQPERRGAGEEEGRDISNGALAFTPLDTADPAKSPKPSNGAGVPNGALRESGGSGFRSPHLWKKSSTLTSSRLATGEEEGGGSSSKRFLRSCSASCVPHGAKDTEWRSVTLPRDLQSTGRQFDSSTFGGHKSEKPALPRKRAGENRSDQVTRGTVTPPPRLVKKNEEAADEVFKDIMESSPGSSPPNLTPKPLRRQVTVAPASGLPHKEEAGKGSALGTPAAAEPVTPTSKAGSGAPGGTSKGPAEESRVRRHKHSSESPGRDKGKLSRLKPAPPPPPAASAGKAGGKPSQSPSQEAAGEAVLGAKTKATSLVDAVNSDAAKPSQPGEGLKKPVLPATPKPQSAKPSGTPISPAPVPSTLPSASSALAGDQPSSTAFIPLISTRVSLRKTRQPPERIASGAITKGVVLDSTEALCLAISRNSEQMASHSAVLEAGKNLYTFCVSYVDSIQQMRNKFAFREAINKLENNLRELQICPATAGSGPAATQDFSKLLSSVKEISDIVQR
T5 sequence (P22607 23-806, species assumed): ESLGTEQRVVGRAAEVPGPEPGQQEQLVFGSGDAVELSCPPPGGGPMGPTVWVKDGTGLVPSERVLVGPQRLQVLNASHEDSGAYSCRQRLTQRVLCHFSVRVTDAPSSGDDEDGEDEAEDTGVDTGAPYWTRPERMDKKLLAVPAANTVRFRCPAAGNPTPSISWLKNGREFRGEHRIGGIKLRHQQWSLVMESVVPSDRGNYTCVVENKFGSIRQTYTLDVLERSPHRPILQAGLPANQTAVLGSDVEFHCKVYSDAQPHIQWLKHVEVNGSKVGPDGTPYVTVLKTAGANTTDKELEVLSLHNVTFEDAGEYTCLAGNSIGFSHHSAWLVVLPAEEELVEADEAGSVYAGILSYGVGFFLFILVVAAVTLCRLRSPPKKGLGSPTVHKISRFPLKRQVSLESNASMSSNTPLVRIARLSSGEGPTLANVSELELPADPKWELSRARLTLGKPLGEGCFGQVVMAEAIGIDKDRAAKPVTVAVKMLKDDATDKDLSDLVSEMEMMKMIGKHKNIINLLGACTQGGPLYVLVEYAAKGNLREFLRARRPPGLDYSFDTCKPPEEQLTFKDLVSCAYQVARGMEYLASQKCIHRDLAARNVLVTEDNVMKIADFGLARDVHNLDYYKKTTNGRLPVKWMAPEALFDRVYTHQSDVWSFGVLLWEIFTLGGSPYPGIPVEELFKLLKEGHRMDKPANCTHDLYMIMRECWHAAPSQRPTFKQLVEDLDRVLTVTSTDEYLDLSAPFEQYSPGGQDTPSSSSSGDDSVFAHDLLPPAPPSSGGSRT
T3 sequence (P49841 whole entry, species assumed): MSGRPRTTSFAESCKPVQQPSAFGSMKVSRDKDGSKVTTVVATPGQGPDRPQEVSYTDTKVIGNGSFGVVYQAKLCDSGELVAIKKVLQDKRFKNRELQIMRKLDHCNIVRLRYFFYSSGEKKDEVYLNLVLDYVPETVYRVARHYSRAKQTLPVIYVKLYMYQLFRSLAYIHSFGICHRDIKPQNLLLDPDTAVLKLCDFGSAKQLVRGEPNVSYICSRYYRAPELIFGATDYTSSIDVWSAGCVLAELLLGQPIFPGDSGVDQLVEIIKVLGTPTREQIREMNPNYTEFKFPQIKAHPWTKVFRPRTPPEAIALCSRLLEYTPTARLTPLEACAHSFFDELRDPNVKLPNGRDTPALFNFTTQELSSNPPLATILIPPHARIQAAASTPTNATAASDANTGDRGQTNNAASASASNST
T9 sequence (P48730 whole entry, species assumed): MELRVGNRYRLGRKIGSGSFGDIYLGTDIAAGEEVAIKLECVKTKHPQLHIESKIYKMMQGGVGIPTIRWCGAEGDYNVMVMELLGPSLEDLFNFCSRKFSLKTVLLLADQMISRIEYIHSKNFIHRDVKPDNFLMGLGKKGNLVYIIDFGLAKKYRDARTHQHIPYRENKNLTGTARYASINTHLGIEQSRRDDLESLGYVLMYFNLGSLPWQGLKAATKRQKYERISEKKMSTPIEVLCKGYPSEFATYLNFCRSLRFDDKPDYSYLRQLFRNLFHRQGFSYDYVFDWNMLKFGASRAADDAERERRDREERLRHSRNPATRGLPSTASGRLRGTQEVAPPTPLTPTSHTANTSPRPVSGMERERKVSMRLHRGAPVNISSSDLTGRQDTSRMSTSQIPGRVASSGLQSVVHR

SMILES | Growth rate [GR] (HEK293T cells [3]; 3 µM) | ΔTm at 20 µM (ABL1) [°C] | ΔTm at 20 µM (MAPK1) [°C] | ΔTm at 20 µM (GSK3B) [°C] | ΔTm at 20 µM (CDK2) [°C] | ΔTm at 20 µM (FGFR3) [°C] | ΔTm at 20 µM (BRD4) [°C] | ΔTm at 20 µM (TRIM24) [°C] | ΔTm at 20 µM (BRPF1) [°C] | ΔTm at 20 µM (CSNK1D) [°C] | Mean ΔTM ABL1 (ABL1) [K] | Mean ΔTM MAPK1 (MAPK1) [K] | Mean ΔTM GSK3B (GSK3B) [K] | Mean ΔTM CDK2 (CDK2) [K] | Mean ΔTM BRD4 (BRD4) [K] | Mean ΔTM TRIM24 (TRIM24) [K] | Mean ΔTM BRPF1 (BRPF1) [K] | Mean ΔTM CSNK1D (CSNK1D) [K] | Metabolic activity [MA] (HEK293T cells [2]; 3 µM, DMSO 0.1% = 1.00) | Apoptosis induction [AI] (HEK293T cells [5]; 3 µM, DMSO 0.1% = 1.00) | also measured
CC#C[C@]1(O)CC[C@H]2[C@@H]3CCC4=CC(=O)CCC4=C3[C@@H](c3ccc(N(C)C)cc3)C[C@@]21C [Mifepristone] | 0.65 and 3.36 and 0.73 and 0.97 and 1.04 and 0.86 and 1.00 and 1.72 and 1.53 and 3.99 | 0.11 | -0.7 | -1.3 | -0.0248 | 0.14 | -2.39 | -0.92 | -2.63 | 0.0217 |  |  |  |  |  |  |  |  |  |  | Mean NFκB response ([1]; 3 µM, 1,5 h): 3613.33 GFP+-cells/confluence ∙ 1000; Mean NFκB response ([1]; 3 µM, 4,5 h): 4100.00 GFP+-cells/confluence ∙ 1000; Mean NFκB response ([1]; 3 µM, 7,5 h): 7536.67 GFP+-cells/confluence ∙ 1000; Mean NFκB response ([1]; 3 µM, 10,5 h): 17493.33 GFP+-cells/confluence ∙ 1000; Mean NFκB response ([1]; 3 µM, 13,5 h): 25396.67 GFP+-cells/confluence ∙ 1000; Mean NFκB response ([1]; 3 µM, 16,6 h): 31560.00 GFP+-cells/confluence ∙ 1000; Mean NFκB response ([1]; 3 µM, 19,5 h): 36246.67 GFP+-cells/confluence ∙ 1000; Mean NFκB response ([1]; 3 µM, 22,5 h): 39496.67 GFP+-cells/confluence ∙ 1000; Mean NFκB response ([1]; 3 µM, 3 h): 3656.67 GFP+-cells/confluence ∙ 1000; Mean NFκB response ([1]; 3 µM, 6 h): 4860.00 GFP+-cells/confluence ∙ 1000; Mean NFκB response ([1]; 3 µM, 9 h): 12946.67 GFP+-cells/confluence ∙ 1000; Mean NFκB response ([1]; 3 µM, 12 h): 21246.67 GFP+-cells/confluence ∙ 1000; Mean NFκB response ([1]; 3 µM, 15 h): 28726.67 GFP+-cells/confluence ∙ 1000; Mean NFκB response ([1]; 3 µM, 18 h): 34060.00 GFP+-cells/confluence ∙ 1000; Mean NFκB response ([1]; 3 µM, 21 h): 38440.00 GFP+-cells/confluence ∙ 1000; Mean NFκB response ([1]; 3 µM, 24 h): 40840.00 GFP+-cells/confluence ∙ 1000; Metabolic activity [MA] (HEK293T cells [2]; 3 µM, HEK293T, 24 h, WST-8, normalized to 0.1% DMSO): 1.08 and 1.01 and 1.00 and 1.09 and 1.04 and 1.03 and 1.16 (2×); activity at 3 µM [4]: 99%; Apoptosis induction [AI] (HEK293T cells [5]; 3 µM, HEK293T, 24 h, apoptotic cell count normalized to 0.1% DMSO): 1.09 and 1.02 and 1.10 and 1.15 and 0.56 and 0.53; Necrosis induction [NI] (HEK293T cells [6]): 1.14 and 0.95 and 0.92 and 0.99
COc1ccc(-c2coc3cc(O)cc(O)c3c2=O)cc1 [Biochanin A] |  |  |  |  |  |  |  |  |  |  | 1.61 | 0.55 | -0.89 | 1.69 | 0.32 | 2.59 | 2.98 | -0.77 |  |  | Metabolic activity [MA] (HEK293T cells [2]; 10 µM, DMSO 0.1% = 1.00): 0.87 and 0.81 and 1.01 and 0.90 and 1.15 and 0.98; Growth rate [GR] (HEK293T cells [3]; 10 µM): 0.50 and 0.90 and 0.87 and 0.72 and 0.82 and 0.61; Apoptosis induction [AI] (HEK293T cells [5]; 10 µM, DMSO 0.1% = 1.00): 0.76 and 0.84; Mean ΔTM FGFR3 (FGFR3): 1.13 K
C/C=C1\C(=O)C[C@H]2[C@@H]3CCC4=CC(=O)CC[C@]4(C)[C@H]3CC[C@]12C [Z-Guggulsterone] | 0.73 and 0.88 and 1.06 and 0.96 and 0.82 and 1.15 |  |  |  |  |  |  |  |  |  | 0.07 | 0.47 | -1.05 | -0.30 | -2.62 | -2.32 | -1.36 | 0.63 | 1.00 and 0.94 and 1.08 and 1.06 and 1.18 and 1.15 | 0.63 and 1.35 | 
CCCC1O[C@@H]2C[C@H]3[C@@H]4CCC5=CC(=O)C=C[C@]5(C)[C@H]4[C@@H](O)C[C@]3(C)[C@]2(C(=O)CO)O1 (stereo partly drawn) [Budesonide] | 0.90 and 1.09 and 1.10 and 0.85 and 0.69 and 0.78 | 0.48 | -0.27 | -0.4 | 0.00668 | -0.77 | -1.67 | -0.81 | -1.04 | -0.0262 |  |  |  |  |  |  |  |  | 0.86 and 0.88 and 1.03 (2×) and 1.13 and 0.99 | 1.77 and 1.74 | Metabolic activity [MA] (HEK293T cells [2]; 0.3 µM, DMSO 0.1% = 1.00): 1.02 and 0.97 and 1.07 and 0.99 and 1.12 and 1.03; Growth rate [GR] (HEK293T cells [3]; 0.3 µM): 0.59 and 0.92 (3×) and 1.24 and 0.68; Apoptosis induction [AI] (HEK293T cells [5]; 0.3 µM, DMSO 0.1% = 1.00): 1.00 and 1.74; apoptosis induction (HEK293T cells [5]; HEK293T, 24 h, budesonide (3 µM), others at tested concentration): slight apoptosis induction
